These results are taken from ChEMBL document CHEMBL3769343, “Spiromastilactones: A new class of influenza virus inhibitors from deep-sea fungus” (Eur J Med Chem, 2016).

A short description of data set [1]: Cytotoxicity against MDCK cells after 40 hrs by Celltiter-Glo assay. Type of data set: cell-based, Canis lupus familiaris. The conditions noted are these: dog. Background: ATP-based viability assays read luminescence as a measure of living cells.
Data set [2] relates to Influenza B virus. In words: Antiviral activity against influenza B virus B/SZ/155 infected in dog MDCK cells assessed as inhibition of virus induced cytopathic effect after 40 hrs by Cell-Titer-Glo assay. The following applies: B/SZ/155, MDCK. Type of data set: functional, organism-based. For orientation: Cytopathic effects are the visible damage that an infection or toxin causes in cultured cells.

For data set [3], the system named is Influenza A virus. Briefly: Antiviral activity against Influenza A virus A/WSN/1933 (H1N1) infected in MDCK cells assessed as protection against virus induced cytopathic effect after 40 hrs by Celltiter-Glo assay. Type of data set: functional, organism-based.
Data set [4] relates to Influenza A virus. Briefly: Antiviral activity against Influenza A virus A/WSN/33 (H1N1) infected in dog MDCK cells assessed as reduction in nucleoprotein level at 100 uM measured over 10 hrs by Western blot analysis relative to control. The conditions noted are these: A/WSN/1933(H1N1). Type of data set: functional, organism-based.
Data set [5] deals with Influenza A virus. Briefly: Antiviral activity against Influenza A virus A/WSN/33 (H1N1) infected in dog MDCK cells assessed as reduction in nucleoprotein level at 100 uM measured over 2 hrs by Western blot analysis relative to control. The conditions noted are these: A/WSN/1933(H1N1). Type of data set: functional, organism-based.
Data set [6] has as its system Influenza A virus. In words: Antiviral activity against Influenza A virus A/WSN/33 (H1N1) infected in dog MDCK cells assessed as reduction in nucleoprotein level at 100 uM measured at 2 to 5 hrs by Western blot analysis relative to control. Type of data set: functional, organism-based. The conditions noted are these: A/WSN/1933(H1N1).
Data set [7] has as its system Influenza A virus. Briefly: Antiviral activity against Influenza A virus A/WSN/33 (H1N1) infected in dog MDCK cells assessed as reduction in nucleoprotein level at 100 uM measured at 5 to 8 hrs by Western blot analysis relative to control. Type of data set: functional, organism-based. The following applies: A/WSN/1933(H1N1). (In general: A western blot detects proteins with antibodies after separation by electrophoresis.)

The test system of data set [8] is Influenza A virus. In words: Antiviral activity against Influenza A virus A/WSN/33 (H1N1) infected in dog MDCK cells assessed as reduction in nucleoprotein level at 100 uM measured at 8 to 10 hrs by Western blot analysis relative to control. Type of data set: functional, organism-based. The conditions noted are these: A/WSN/1933(H1N1).
Data set [9] has as its system Influenza A virus. Briefly: Antiviral activity against Influenza A virus A/WSN/33 (H1N1) assessed as inhibition of viral infection in dog MDCK cells at 50 uM pretreated with virus for 30 mins followed by host cell inoculation for 1 hr measured after 36 hrs. The following applies: A/WSN/1933(H1N1). Type of data set: functional.
Data set [10] relates to Influenza A virus. In words: Antiviral activity against Influenza A virus A/WSN/33 (H1N1) assessed as inhibition of viral infection in dog MDCK cells at 50 uM pretreated with cells for 30 mins followed by exposure to virus for 1 hr measured after 36 hrs. Type of data set: functional. The conditions noted are these: A/WSN/1933(H1N1).
Data set [11] relates to Influenza A virus (A/WSN/1933(H1N1)). Briefly: Inhibition of Influenza A virus A/WSN/33 (H1N1) HA1 protein assessed as inhibition of virus induced aggregation of chicken erythrocytes after 30 mins.
For data set [12] the test system is unchanged. Briefly: Binding affinity to Influenza A virus A/WSN/33 (H1N1) HA1 protein by surface plasmon resonance assay.
The nature of data set [13]: Binding affinity to Influenza A virus H3N2 HA3 protein by surface plasmon resonance assay.
A short description of data set [14]: Binding affinity to influenza B virus HA1 protein by surface plasmon resonance assay.
A short description of data set [15]: Inhibition of Influenza A virus A/WSN/33 (H1N1) HA1 protein by surface plasmon resonance assay. Set-up: species or system Influenza A virus (A/WSN/1933(H1N1)).
In data set [16] the test system is A549. In words: Binding affinity to Influenza A virus A/WSN/33 (H1N1) HA1 protein assessed as inhibition of virus attachment to human A549 cells at 10 to 50 uM after 1 hr by DAPI staining based immunofluorescence microscopic analysis. Type of data set: cell-based. The conditions noted are these: Influenza A virus (A/WSN/1933(H1N1)).
In data set [17] the test system is HeLa. Briefly: Binding affinity to Influenza A virus A/WSN/33 (H1N1) HA2 protein assessed as polykaryon formation in human HeLa cells preincubated with test compound for 15 mins followed by further test compound addition at pH 4.9 for 15 mins by crystal violet staining-based microscopic analysis. The conditions noted are these: Influenza A virus (A/WSN/1933(H1N1)). Type of data set: cell-based.

A short description of data set [18]: Binding affinity to Influenza A virus A/WSN/33 (H1N1) HA1 protein assessed as decrease in protein affinity to sialic acid receptor by surface plasmon resonance assay (reference value: 70 nM). Set-up: species or system Influenza A virus (A/WSN/1933(H1N1)).
Data set [19] deals with Influenza A virus. Briefly: Antiviral activity against Influenza A virus A/WSN/33 (H1N1) infected in human A549 cells assessed as inhibition of (-)vRNA production after 7 hrs by qRT-PCR analysis. The conditions noted are these: A/WSN/1933(H1N1). Type of data set: functional, organism-based.
Data set [20] deals with Influenza A virus. In words: Antiviral activity against Influenza A virus A/WSN/33 (H1N1) infected in human A549 cells assessed as inhibition of (+)cRNA production after 7 hrs by qRT-PCR analysis. Type of data set: functional, organism-based. The following applies: A/WSN/1933(H1N1).
The subject of data set [21] is Influenza A virus. In words: Antiviral activity against Influenza A virus A/WSN/33 (H1N1) infected in human A549 cells assessed as inhibition of mRNA of M1 segment production after 7 hrs by qRT-PCR analysis. The following applies: A/WSN/1933(H1N1). Type of data set: functional, organism-based.
The test system of data set [22] is Influenza A virus. In words: Antiviral activity against Influenza A virus A/WSN/33 (H1N1) infected in dog MDCK cells assessed as inhibition of viral nucleoprotein synthesis after 6 hrs by DAPI staining based immunofluorescence microscopy. Type of data set: functional, organism-based. The following applies: A/WSN/1933(H1N1).
Data set [23] deals with HEK-293T. In words: Inhibition of Influenza A virus RNP infected in HEK293T cells assessed as decrease in ratio of Fluc to Rluc. Type of data set: cell-based. The following applies: Influenza A virus (A/WSN/1933(H1N1)).
The subject of data set [24] is HEK-293T. In words: Effect on renilla luciferase expressed in HEK293T cells at 6.25 to 50 uM after 48 hrs. Type of data set: cell-based.
The test system of data set [25] is Influenza A virus. In words: Antiviral activity against Influenza A virus A/WSN/33 (H1N1) assessed as inhibition of viral infection in dog MDCK cells at 50 uM after 36 hrs. Type of data set: functional. The following applies: A/WSN/1933(H1N1).
Data set [26] deals with Influenza A virus (A/WSN/1933(H1N1)). In words: Binding affinity to Influenza A virus A/WSN/33 (H1N1) HA1 protein assessed as decrease in protein affinity to sialic acid receptor at 40 uM by surface plasmon resonance assay relative to control.
Data set [27] has the same test system. In words: Binding affinity to Influenza A virus A/WSN/33 (H1N1) HA1 protein assessed as decrease in protein affinity to sialic acid receptor at 20 uM by surface plasmon resonance assay.
The test system is the same in data set [28]. In words: Binding affinity to Influenza A virus A/WSN/33 (H1N1) HA1 protein assessed as decrease in protein affinity to sialic acid receptor at 10 uM by surface plasmon resonance assay.
The test system is the same in data set [29]. Briefly: Binding affinity to Influenza A virus A/WSN/33 (H1N1) HA1 protein assessed as decrease in protein affinity to sialic acid receptor at 5 uM by surface plasmon resonance assay.
The test system is the same in data set [30]. In words: Binding affinity to Influenza A virus A/WSN/33 (H1N1) HA1 protein assessed as decrease in protein affinity to sialic acid receptor at 2.5 uM by surface plasmon resonance assay.
Data set [31] shares this test system. Briefly: Binding affinity to Influenza A virus A/WSN/33 (H1N1) HA1 protein assessed as decrease in protein affinity to sialic acid receptor at 1.25 uM by surface plasmon resonance assay.
For data set [32] the test system is unchanged. In words: Binding affinity to Influenza A virus A/WSN/33 (H1N1) HA1 protein assessed as decrease in protein affinity to sialic acid receptor at 0.625 uM by surface plasmon resonance assay.
Data set [33] shares this test system. Briefly: Binding affinity to Influenza A virus A/WSN/33 (H1N1) HA1 protein assessed as decrease in protein affinity to sialic acid receptor by measuring association constant by surface plasmon resonance assay (reference value: 20810/s).
Data set [34] can be described thus: Binding affinity to Influenza A virus A/WSN/33 (H1N1) HA1 protein assessed as decrease in protein affinity to sialic acid receptor by measuring dissociation constant by surface plasmon resonance assay (reference value: 0.001473/Ms). Set-up: species or system Influenza A virus (A/WSN/1933(H1N1)).

The source made the active and inactive calls. The calls are words filed in the database; no cut-off is given here.

With `NC(=O)c1ncn([C@@H]2O[C@H](CO)[C@@H](O)[C@H]2O)n1` [RIBAVIRIN], the CC50 – broadly, the concentration that lowers cell viability or growth by half – at 40 h in data set [1] was greater than 200 µM. For the same compound, the EC50 (usually the concentration at which the effect is half-maximal) in data set [2] came to 4.28 µM.
On to `CCCc1cc(O)cc(O)c1Oc1c(Cl)c(O)c(Cl)c2c1C(=O)O[C@@H]2CC`, for which the IC50 (usually the concentration needed to halve the response being measured) in data set [3] was greater than 100 µM. Moreover, in data set [1], the CC50 at 40 h is greater than 100 µM.
`CCCc1c(Cl)c(O)cc(OC)c1Oc1c(Cl)c(O)c(Cl)c2c1C(=O)O[C@@H]2CC`: the IC50 in data set [3] and in data set [15] was 6 µM each time. Besides, the CC50 at 40 h in data set [1] was greater than 100 µM. Moreover, the result in [4], in data set [5], in [6] and in data set [7] was Active. The outcome in data set [8], in data set [17] and in [24] was inactive. Further, the inhibition – broadly, how much of the control response was suppressed – at 50 µM in data set [9] worked out at 40%; in [10] it was 25%; in [25], 90%. For the same compound, the inhibition result in data set [11], in [19], in data set [20], in data set [21] and in data set [22] was “Dose-dependent effect” throughout. Moreover, the Ka in data set [12] stood at 2.3 ×10⁴ /Ms; in data set [33] it was 3420 s⁻¹. For the same compound, the Kd amounted to 18 µM in data set [13], 14 µM in [14], 0.547 µM in data set [18] and 0.00187 M⁻¹ s⁻¹ in [34]. Besides, the inhibition result in [16] and in data set [23] was “Active” in each case. Besides, in [2], the EC50 came to 32 µM. In data set [26], the fold change (FC) came out at 8. Further, the Activity in data set [27] was 98.2 RU; in [28], 44.8 RU; in data set [29] it was 21 RU; in data set [30], 10.3 RU; in [31], 5.4 RU; in [32] it was 3.3 RU.
With `CCOC(=O)c1c(CSc2ccccc2)n(C)c2cc(Br)c(O)c(CN(C)C)c12` [UMIFENOVIR], the Kd came to 0.081 µM in data set [18] and 0.0009582 M⁻¹ s⁻¹ in data set [34]. Moreover, the Activity in [27] was 102 RU; in data set [28], 48.7 RU; in [29], 20.7 RU; in data set [30], 7.5 RU; in data set [31], 1.2 RU; in data set [32] it was -1.8 RU. The Ka in [33] was found to be 11800 s⁻¹.
As to `CCCc1c(Cl)c(OC)c(Cl)c(OC)c1Oc1c(Cl)c(O)c(Cl)c2c1C(=O)O[C@@H]2CC`, the IC50 in data set [3] was greater than 50 µM. In data set [1], this compound displayed a CC50 at 40 h greater than 50 µM.
For `CCCc1cc(O)c(Cl)c(O)c1Oc1c(Cl)c(O)c(Cl)c2c1C(=O)O[C@@H]2CC`, the IC50 in data set [3] and in data set [15] was 30.7 µM throughout. Besides, in data set [1], the CC50 at 40 h is greater than 100 µM. In [12], the Ka was 0.67 ×10⁴ /Ms.
With `CCCc1c(Cl)c(O)cc(O)c1Oc1c(Cl)c(O)c(Cl)c2c1C(=O)O[C@@H]2CC`, the IC50 in data set [3] was 27.6 µM. Besides, in data set [1], the CC50 at 40 h is greater than 50 µM.
The corresponding values for `CC[C@H]1OC(=O)c2c(O)c(Cl)c(O)c(Cl)c21` are greater than 100 µM and greater than 100 µM.
Turning to `NC12CC3CC(CC(C3)C1)C2` [AMANTADINE], the IC50 in data set [3] worked out at 13 µM. This compound had a CC50 at 40 h in data set [1] greater than 100 µM. For the same compound, the EC50 in data set [2] is 144 µM.
For the compound `CCCc1cc(O)cc(OC)c1Oc1c(Cl)c(O)c(Cl)c2c1C(=O)O[C@@H]2CC`, the half-inhibitory concentration (IC50) in data set [3] and in [15] was 74.9 µM each time. The compound also showed a CC50 at 40 h in data set [1] greater than 100 µM. The Ka in data set [12] amounted to 0.46 ×10⁴ /Ms; in [33] it was 3560 s⁻¹. The Kd in data set [18] turned out to be 0.224 µM; in [34] it was 0.0007964 M⁻¹ s⁻¹. In addition, the Activity was found to be 114 RU in data set [27]; 55.1 RU in [28]; 27.1 RU in [29]; 13 RU in data set [30]; 7 RU in [31]; 3.4 RU in [32].
